Measurements published in PMC11022890 (Drug Metabolism and Disposition, 2021).

Columns and labels:
UGT1A1 = target: T1, UGT1A1 (Homo sapiens, UniProt P22309); assay: Screening: inhibition of β-estradiol glucuronidation in rUGT1A1 microsomes; assay type: in vitro ADME; conditions: 10 or 100 µM
T1 sequence (P22309 26-533): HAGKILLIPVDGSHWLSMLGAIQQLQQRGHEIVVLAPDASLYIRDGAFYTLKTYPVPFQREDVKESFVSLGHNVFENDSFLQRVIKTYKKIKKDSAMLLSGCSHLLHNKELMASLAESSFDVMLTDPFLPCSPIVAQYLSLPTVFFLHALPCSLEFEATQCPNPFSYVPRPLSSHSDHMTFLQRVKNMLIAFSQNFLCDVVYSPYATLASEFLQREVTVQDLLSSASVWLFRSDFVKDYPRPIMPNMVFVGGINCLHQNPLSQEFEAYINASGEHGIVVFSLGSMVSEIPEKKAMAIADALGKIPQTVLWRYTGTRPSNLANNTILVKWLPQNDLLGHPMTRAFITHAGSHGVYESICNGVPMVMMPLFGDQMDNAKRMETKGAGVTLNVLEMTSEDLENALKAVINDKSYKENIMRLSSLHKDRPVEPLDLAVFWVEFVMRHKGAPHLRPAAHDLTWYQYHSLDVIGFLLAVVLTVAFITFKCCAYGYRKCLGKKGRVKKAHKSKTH

UGT2B17 = target: T2, UGT2B17 (Homo sapiens, UniProt O75795); assay type: in vitro ADME; conditions: 100 µM; rUGT2B17 microsomes; dihydroexemestane; screening
T2 sequence (O75795 24-530): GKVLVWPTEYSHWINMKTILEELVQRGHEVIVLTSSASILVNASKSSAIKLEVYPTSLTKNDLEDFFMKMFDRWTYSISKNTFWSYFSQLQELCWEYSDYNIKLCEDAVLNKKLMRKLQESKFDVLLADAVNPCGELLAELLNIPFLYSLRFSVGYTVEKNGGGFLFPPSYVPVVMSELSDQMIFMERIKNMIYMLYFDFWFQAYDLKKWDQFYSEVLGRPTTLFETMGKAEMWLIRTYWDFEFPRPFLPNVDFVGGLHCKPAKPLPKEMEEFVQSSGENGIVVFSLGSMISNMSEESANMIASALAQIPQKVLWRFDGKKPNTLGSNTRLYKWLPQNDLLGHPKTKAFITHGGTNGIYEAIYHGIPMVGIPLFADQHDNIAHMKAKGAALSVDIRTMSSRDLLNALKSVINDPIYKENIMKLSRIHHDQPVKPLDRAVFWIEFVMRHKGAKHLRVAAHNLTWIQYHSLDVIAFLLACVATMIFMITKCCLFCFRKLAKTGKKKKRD

UGT2B4 = target: T3, UGT2B4 (Homo sapiens, UniProt P06133); assay: Inhibition of codeine glucuronidation in rUGT2B4 microsomes; assay type: in vitro ADME
T3 sequence (P06133 24-528): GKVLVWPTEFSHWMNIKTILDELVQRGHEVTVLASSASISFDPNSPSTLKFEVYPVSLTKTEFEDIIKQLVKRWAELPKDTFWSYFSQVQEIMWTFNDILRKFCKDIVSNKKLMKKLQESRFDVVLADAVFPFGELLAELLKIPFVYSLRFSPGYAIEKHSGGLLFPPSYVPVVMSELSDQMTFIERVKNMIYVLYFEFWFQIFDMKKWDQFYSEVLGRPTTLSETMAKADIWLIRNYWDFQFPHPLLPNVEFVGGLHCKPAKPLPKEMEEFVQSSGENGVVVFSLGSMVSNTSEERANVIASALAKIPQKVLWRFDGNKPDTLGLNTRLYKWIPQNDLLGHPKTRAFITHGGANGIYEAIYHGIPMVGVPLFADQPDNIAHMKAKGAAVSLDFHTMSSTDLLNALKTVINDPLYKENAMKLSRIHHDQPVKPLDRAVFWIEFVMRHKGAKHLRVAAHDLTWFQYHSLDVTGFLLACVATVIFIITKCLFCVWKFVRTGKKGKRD

UGT1A9 = target: T4, UGT1A9 (Homo sapiens, UniProt O60656); assay: in vitro; conditions: both, HLM
T4 sequence (O60656 26-530): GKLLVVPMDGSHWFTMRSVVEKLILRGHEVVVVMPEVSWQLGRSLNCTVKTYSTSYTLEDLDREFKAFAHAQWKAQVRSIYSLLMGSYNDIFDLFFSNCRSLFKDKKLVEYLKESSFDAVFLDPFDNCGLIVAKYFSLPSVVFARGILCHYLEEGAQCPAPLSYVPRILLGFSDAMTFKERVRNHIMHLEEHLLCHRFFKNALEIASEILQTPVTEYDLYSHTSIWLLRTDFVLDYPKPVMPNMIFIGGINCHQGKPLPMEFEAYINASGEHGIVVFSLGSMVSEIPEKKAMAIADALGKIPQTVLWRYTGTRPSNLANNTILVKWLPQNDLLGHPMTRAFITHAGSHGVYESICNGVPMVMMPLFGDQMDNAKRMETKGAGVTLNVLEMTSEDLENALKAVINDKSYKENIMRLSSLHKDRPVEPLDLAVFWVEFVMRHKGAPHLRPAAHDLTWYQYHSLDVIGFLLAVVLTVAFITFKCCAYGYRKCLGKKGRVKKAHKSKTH

UGT2B15 = target: T5, UGT2B15 (Homo sapiens, UniProt P54855); assay: Screening: inhibition of oxazepam glucuronidation in rUGT2B15 microsomes; assay type: in vitro ADME; conditions: 10 or 100 µM
T5 sequence (P54855 24-530): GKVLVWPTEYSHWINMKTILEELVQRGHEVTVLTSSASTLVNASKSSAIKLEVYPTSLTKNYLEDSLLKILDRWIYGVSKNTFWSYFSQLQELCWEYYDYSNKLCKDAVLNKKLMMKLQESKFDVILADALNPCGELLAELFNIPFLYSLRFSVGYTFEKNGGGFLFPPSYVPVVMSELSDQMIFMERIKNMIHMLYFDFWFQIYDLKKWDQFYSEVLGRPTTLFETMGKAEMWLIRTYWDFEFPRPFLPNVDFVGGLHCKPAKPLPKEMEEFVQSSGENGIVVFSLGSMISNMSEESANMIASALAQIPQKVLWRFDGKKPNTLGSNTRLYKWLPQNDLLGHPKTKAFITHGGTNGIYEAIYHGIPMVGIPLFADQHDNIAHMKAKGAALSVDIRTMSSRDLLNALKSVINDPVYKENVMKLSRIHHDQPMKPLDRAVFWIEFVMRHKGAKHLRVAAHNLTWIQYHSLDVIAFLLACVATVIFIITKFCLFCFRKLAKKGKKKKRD

[1] = IC50, probe substrate acetaminophen
[2] = IC50,u (binding-corrected IC50), probe substrate acetaminophen

Which results are given for `C=C(C)[C@@H]1CCC(C)=C[C@H]1c1c(O)cc(CCCCC)cc1O` [CBD, cannabidiol]?
inhibition in screening (in words) (UGT1A1): no significant inhibition; inhibition vs control without cannabinoid (UGT2B17): 43%; inhibition vs control without cannabinoid (UGT2B4; 10 µM, codeine, screening): 66%; IC50 (UGT2B4; IC50, probe substrate codeine): 5.8 ± 1.2 µM; IC50 (UGT2B4; IC50,u (binding-corrected IC50), probe substrate codeine): 0.22 ± 0.045 µM; IC50 (UGT1A9; [1]): 12 ± 3.2 µM; IC50 (UGT1A9; [2]): 0.64 ± 0.16 µM; inhibition in screening (in words) (UGT2B15): no significant inhibition

Which results are given for `CCCCCc1cc(O)c2c(c1)OC(C)(C)c1ccc(C)cc1-2` [CBN, cannabinol]?
inhibition in screening (in words) (UGT1A1): no significant inhibition; inhibition vs control without cannabinoid (UGT2B17): 34%; inhibition in screening (in words) (UGT2B4; 10 or 100 µM): significant inhibition was not observed; IC50 (UGT1A9; [1]): 34 ± 6.3 µM; IC50 (UGT1A9; [2]): 3.1 ± 0.58 µM; inhibition in screening (in words) (UGT2B15): no significant inhibition
